Experimental data: patent US20030040521A1, “Novel pyrimidin-4-enamine as fungicide” (priority 1998, published 2003)

Tests used:
[1] = system: Venturia Naegualis; assay: Residual-protective action against Venturia inaequalis on apples; assay type: in vivo; settings: apple cuttings, spray mixture 0.02% a.i., infected 24 hours later, evaluation 12 days after infection
Experimental: Residual-protective Action Against Venturia Naegualis on Apples
Apple cuttings with fresh shoots 10 to 20 cm long are sprayed to drip point with a spray mixture (0.02% a.i.) prepared from a wettable powder formulation of the test compound. The plants are infected 24 hours later with a conidia suspension of the fungus. The plants are then incubated for 5 days at 90 to 100% relative humidity and stood in a greenhouse for a further […] at 20 to 24° C. Evaluation of the fungal infestation is made 12 days after infection. Compounds of Tables 1-4 show good activity, preferably the compounds 1.72, 1.81, 1.152, 1.160, 2.11, 3.6, 4.3, 4.5, 4.6, 4.27, 4.29, 4.30, 4.36, 4.38, 4.39, 4.43, 4.45, 4.62, 4.80 and 4.111.

[2] = system: Colletotrichum Lagenarium; assay: Action against Colletotrichum lagenarium on cucumbers; assay type: in vivo; settings: cucumber plants, spray mixture 0.002%, infected 2 days later, evaluation 8 days after infection
Experimental: Action Against Colletotrichum Lagenarium on Cucumbers After a growth period of 2 weeks, cucumber plants are sprayed with an aqueous spray mixture (concentration 0.002%) prepared from a wettable powder formulation of the test compound and infected 2 days later with a spore suspension (1.5×10^5 spores/ml) of the fungus and incubated for 36 hours at 23° C. and high humidity. Incubation is then continued at normal humidity and c. 22° C. Evaluation of the fungal infestation is made 8 days after infection.

| Structure (SMILES) | melting point [°C] | residual-protective activity against Venturia on apples (fungal infestation) [1] | activity against Colletotrichum lagenarium (fungal infestation) [2] |
| --- | --- | --- | --- |
| CCCCc1nc2ccc(Cl)cc2c(=NC)n1CCC [Compound 1.72] | 58 to 60 | good activity | good to excellent activity |
| CCCOC1=Nc2ccc(Cl)cc2C(=CN)N1CCC [Compound 1.74, (6-chloro-2-propoxy-3-propyl-3H-quinazolin-4-ylidene)methylamine] | 53 to 55 |  |  |
| CCCCc1nc2ccc(Br)cc2c(=NC)n1CCC [Compound 1.81] | 61 to 64 | good activity | good to excellent activity |
| CCCN=c1c2cc(Cl)ccc2nc(OCCC)n1CCC [Compound 1.152, (6-Chloro-2-propoxy-3-propyl-3H-quinazoline-4-ylidene)propylamine] | 50 to 51 | good activity | good to excellent activity |
| CCCCN=c1c2cc(Cl)ccc2nc(OCCC)n1CCCC [Compound 1.160] |  | good activity | good to excellent activity |
| CCCOc1nc2ncc(Br)cc2c(=N)n1CCC [Compound 2.11] |  | good activity | good to excellent activity |
| CCCOc1nc2c(Br)csc2c(=NC)n1CCC [Compound 3.6] |  | good activity | good to excellent activity |
| CCCCc1nc2sccc2c(=N)n1CCC [Compound 4.3] |  | good activity | good to excellent activity |
| CCCOc1nc2sccc2c(=N)n1CCC [Compound 4.5] | 61 to 63 | good activity | good to excellent activity |
| CCCCn1c(OCCC)nc2sccc2c1=N [Compound 4.6] |  | good activity | good to excellent activity |
| CCCCc1nc2sc(Cl)cc2c(=NC)n1CCC [Compound 4.27, (2-Butyl-6-chloro-3-propyl-3H-thieno [2,3-d]pyrimidine-4-ylidene)methylamine] |  | good activity | good to excellent activity |
| CCCCn1c(OCCC)nc2sc(Cl)cc2c1=NC [Compound 4.30] |  | good activity | good to excellent activity |
| CCCOc1nc2sc(Br)cc2c(=NC)n1CCC [Compound 4.38, (6-Bromo-3-propyl-2-propoxy-3H-thieno[2,3-d]pyrimidine-4-ylidene)methylamine] |  | good activity | good to excellent activity |
| CCCCn1c(OCCC)nc2sc(Br)cc2c1=NC [Compound 4.39] |  | good activity | good to excellent activity |
| CCCCc1nc2sc(Cl)cc2c(=NCC)n1CCC [Compound 4.43] |  | good activity | good to excellent activity |
| CCCOc1nc2sc(Cl)cc2c(=NCC)n1CCC [Compound 4.45] |  | good activity | good to excellent activity |
| C=CCN=c1c2cc(Cl)sc2nc(OCCC)n1CCC [Compound 4.62] |  | good activity | good to excellent activity |
| C#CCN=c1c2cc(Cl)sc2nc(OCCC)n1CCC [Compound 4.80] |  | good activity | good to excellent activity |
| CCCOc1nc2sc(Cl)cc2c(=NCl)n1CCC [Compound 4.111] |  | good activity | good to excellent activity |
| CCCCc1nc2sc(Cl)cc2c(=NC(=O)OC)n1CCCC [Compound 4.119, (6-chloro-2-butyl-3-butyl-3H-thieno[2,3-d]pyrimidine-4-ylidene)carbamic acid methylester] | 103 to 104 |  |  |
| CCCOc1nc2sc(Cl)cc2c(=NC(C)=O)n1CCC [Compound 4.137, N-(6-chloro-2-propoxy-3-propyl-3H-thieno[2,3-d]pyrimidine-4-ylidene)acetamide] | 101 to 103 |  |  |
| CCCCc1nc2sc(Cl)cc2c(=NC(C)=O)n1CCC [Compound 4.139, N-(6-chloro-2-butyl-3-propyl-3H-thieno[2,3-d]pyrimidine-4-ylidene)acetamide] | 98 to 99 |  |  |
